Source: publication PMC4281220, “Antibacterial Activity of Novel Cationic Peptides against Clinical Isolates of Multi-Drug Resistant Staphylococcus pseudintermedius from Infected Dogs” (PLoS ONE, 2014)
Values after ≈ are worked out from the molar mass of the structure shown. Read-outs that look alike come from different tables or passages of the source. Non-standard residues stand in square brackets, D forms with d. Residues, ends and D or L forms follow the SMILES beside them.

Experiments:
[1] = system: S. pseudintermedius strains; format: cell-based, Staphylococcus pseudintermedius; settings: for GM MIC S. pseudintermedius: 24 h
Procedure: The broth microdilution technique was used to determine the minimum inhibitory concentrations (MIC) of peptides and antibiotics in MHB in accordance with the Clinical and Laboratory Standards Institute (CLSI) guidelines. Peptides were dissolved in sterile distilled water containing 0.02% acetic acid. MIC assays were carried out with an initial bacterial inoculum of 5×10^5 colony forming unit (CFU/ml). Peptides and antibiotics were added to Polystyrene 96 well plates (CytoOne, CC7672-7596) at desired concentrations and plates were incubated for 24 hr at 37°C. MIC was defined as the lowest concentration of peptide which inhibited the visible growth of bacteria. MIC was done in triplicates and the highest value was reported.
(§1) Untreated cells were used as a negative control.

[2] = system: macrophage-like cell line (J774A.1); assay: Cytotoxicity, MTS assay, J774A.1; format: cell-based
[3] = system: Staphylococcus pseudintermedius (SP3); format: cell-based
Procedure: The synergistic effect between peptides and antimicrobial agents was determined by the combination assay as described previously. Peptide MICs against SP3 were determined in triplicate. […] Additive was defined as an FIC index of 1. Antagonism was defined as an FIC index of >4.

[4] = system: methicillin resistant Staphylococcus pseudintermedius (MRSP) strains
Procedure: (§2) Forty isolates of S. pseudintermedius (30 MSSP and 10 MRSP) identified at the Indiana Animal Disease Diagnostic laboratory from specimens collected from dogs admitted to the small animal teaching hospital at Purdue University were included in the study (Tables 2 and 3). […] Vitek identification of S. pseudintermedius was confirmed by a positive coagulase test. Antimicrobial susceptibility was determined by broth microdilution using the SensiTitre (Trek).
(§3) The broth microdilution technique was used to determine the minimum inhibitory concentrations (MIC) of peptides and antibiotics in MHB in accordance with the Clinical and Laboratory Standards Institute (CLSI) guidelines. Peptides were dissolved in sterile distilled water containing 0.02% acetic acid. […] MIC was defined as the lowest concentration of peptide which inhibited the visible growth of bacteria. MIC was done in triplicates and the highest value was reported.

[5] = system: methicillin sensitive Staphylococcus pseudintermedius (MSSP) strains
Procedure: as §2, §3

[6] = system: human keratinocyte (HaCat); assay: Cytotoxicity, MTS assay, HaCat; format: cell-based; settings: for IC50: 24 h
Source text: as §1

SP3 [7] = assay: Bacterial membrane permeability (propidium iodide fluorescence); format: cell-based, Staphylococcus pseudintermedius; settings: SP3, 5X MIC, 10 µM propidium iodide, 30 minutes; in comparison to (KFF)3K, WR-12 and penetratin
Procedure: Bacterial membrane damage was assessed by fluorescence change of propidium iodide dye as described previously. Briefly, SP3 was grown in MHB to logarithmic phase of growth then diluted to OD600≈0.25. Propidium iodide was mixed with bacteria to a final concentration of 10 µM. […] The percentage of membrane permeabilization was calculated as the percent of fluorescent intensity of peptide-treated samples with respect to fluorescence intensity of propidium iodide-loaded, peptide untreated samples.

[8] = system: mammalian cells (J774A.1 and HaCat); assay: Cytotoxicity, MTS assay, statement for both cell lines; settings: 24 hours
Procedure: Peptides were assayed at different concentrations against macrophage-like cell line (J774A.1) and human keratinocyte (HaCat) to determine the potential toxic effect in vitro. […] Untreated cells were used as a negative control. […] After incubation, the cells were washed three times with PBS and the media in each well were replaced with 100 µL of DMEM media and 20 µL of assay reagent, MTS 3-(4,5-dimethylthiazol-2-yl)-5-(3-carboxymethoxyphenyl)-2-(4-sulfophenyl)-2H-tetrazolium) (Promega, Madison, WI, USA). The cells were incubated further for 4 h at 37°C. Corrected absorbance readings (actual absorbance readings for each treatment subtracted from background absorbance) were taken using a kinetic ELISA microplate reader (Molecular Devices, Sunnyvale, CA, USA). Cell viability was expressed as percentage of absorbance in comparison to negative control, untreated cells.
Cytotoxicity data were subjected to statistical analysis using GraphPad Prism 6.0 (GraphPad Software, La Jolla, CA). Cytotoxicity data were analyzed using one-way ANOVA, with post hoc Tukey's multiple comparisons test. P-values of <0.01 were considered significant.

SP3 [9] = assay: Growth kinetics (culture turbidity, OD600); format: cell-based, Staphylococcus pseudintermedius; settings: SP3, 5 X MIC, MHB, OD600, within the same time frame (7 hours)
Procedure: The turbidity of bacterial culture after exposure to peptides was measured as described previously. Briefly, logarithmic growth of SP 3 was diluted in MHB to reach OD600≈0.25. One mL of diluted bacteria was added to a plastic cuvette (light path 1 cm). Peptides and antibiotics were added to cuvettes at a concentration equivalent to 5 X MIC as determined in antibacterial assays above. Cuvettes were incubated aerobically at 37°C. At specific time points, OD was measured at 600 nm wavelength by spectrophotometer. Cuvettes containing MHB without bacteria and with the same concentrations of peptide or antibiotic served as blanks. Nisin at 5 X MIC and untreated bacteria were used as positive and negative controls, respectively. The assay was repeated twice and the average was reported.

MRSP (SP3) = assay: Time kill assay; format: cell-based, Staphylococcus pseudintermedius; settings: SP3, 5X MIC, MHB
Procedure: One strain of MRSP (SP3) was grown overnight in MHB, then diluted in fresh MHB and incubated for 2 hr until logarithmic growth phase was achieved. Then bacteria were centrifuged and washed twice with phosphate buffered saline (PBS) and adjusted to ∼5×10^5 CFU/ml in MHB. […] Aliquots at specified time points were taken, serially diluted in PBS and plated in triplicate on MHA. CFUs were counted after incubation of plates for 24 hr at 37°C.

[10] = system: S. pseudintermedius (SP6); format: cell-based, Staphylococcus pseudintermedius; settings: SP6, serial passages at 1/2 X MIC
Source text: Results were expressed as the ratio of MIC value after each passage compared to the initial MIC value.

[11] = system: mammalian or microbial proteases; settings: effect of the D-amino acids substitution; cited from earlier work
Source text: WR-12 is a broad-spectrum AMP and consists exclusively of arginine and tryptophan, arranged to form idealized amphipathic helices. […] Additionally, the D-amino acids ...

[12] = compound serially diluted in the presence of (KFF)3K fixed at one-quarter of its MIC
[13] = compound serially diluted in the presence of IK8 “D isoform” fixed at one-quarter of its MIC
[14] = compound serially diluted in the presence of Penetratin fixed at one-quarter of its MIC
[15] = compound serially diluted in the presence of RR fixed at one-quarter of its MIC
[16] = compound serially diluted in the presence of RRIKA fixed at one-quarter of its MIC
[17] = compound serially diluted in the presence of WR-12 fixed at one-quarter of its MIC

CC[C@H](C)[C@H](NC(=O)CN)C(=O)NCC(=O)N[C@@H](C)C(=O)N[C@H](C(=O)N[C@@H](CC(C)C)C(=O)N[C@@H](CCCCN)C(=O)N[C@H](C(=O)N[C@@H](CC(C)C)C(=O)N[C@H](C(=O)N[C@H](C(=O)NCC(=O)N[C@@H](CC(C)C)C(=O)N1CCC[C@H]1C(=O)N[C@@H](C)C(=O)N[C@@H](CC(C)C)C(=O)N[C@H](C(=O)N[C@@H](CO)C(=O)N[C@@H](Cc1c[nH]c2ccccc12)C(=O)N[C@H](C(=O)N[C@@H](CCCCN)C(=O)N[C@@H](CCCNC(=N)N)C(=O)N[C@@H](CCCCN)C(=O)N[C@@H](CCCNC(=N)N)C(=O)N[C@@H](CCC(N)=O)C(=O)N[C@@H](CCC(N)=O)C(N)=O)[C@@H](C)CC)[C@@H](C)CC)[C@@H](C)O)[C@@H](C)O)C(C)C)C(C)C [Melittin, melittin, reference compound]
MIC ([1]; MIC of the melittin, strain not stated): 5 µM | IC50 ([2]; MTS assay, 24 hours treatment, 8 to 256 µM, DMEM 10% FBS, concentration that inhibits 50% of cells, read-out: IC50 J774A.1): 2 µM | concentration toxic to J774A.1 ([2]; MTS assay, positive control, 24 hours, P<0.01): 5 µM

CNC(C)C1CCC(N)C(OC2C(N)CC(N)C(OC3OCC(C)(O)C(NC)C3O)C2O)O1 (stereo not shown) [Gentamicin]
FIC index [3, 12]: 0.26 | FIC index [3, 13]: 1 | FIC index [3, 14]: 1 | FIC index [3, 15]: 0.75 | FIC index [3, 16]: 1 | FIC index [3, 17]: 0.75

CC[C@H](C)[C@H](NC(=O)[C@H](CCCNC(=N)N)NC(=O)[C@H](CCCNC(=N)N)NC(=O)[C@H](CC(C)C)NC(=O)[C@H](Cc1c[nH]c2ccccc12)NC(=O)[C@H](C)NC(=O)[C@H](CCCCN)NC(=O)[C@@H](NC(=O)[C@H](CCCNC(=N)N)NC(=O)[C@H](CCCNC(=N)N)NC(=O)[C@H](CC(C)C)NC(=O)[C@@H](N)Cc1c[nH]c2ccccc12)[C@@H](C)CC)C(=O)N[C@@H](CCCCN)C(=O)N[C@@H](C)C(=O)O [RRIKA]
MIC50 [4]: 1 µM (≈ 1.87 µg/mL) | MIC90 [4]: 1 µM (≈ 1.87 µg/mL) | MIC50 [5]: 1 µM (≈ 1.87 µg/mL) | MIC90 [5]: 2 µM (≈ 3.73 µg/mL) | GM MIC S. pseudintermedius [1]: 1.15 µM | IC50 ([2]; 24 h): 64 µM | TI (Therapeutic index) J774A.1 ([2]; 24 h): 55.6 | IC50 [6]: 128 µM | TI (Therapeutic index) HaCat ([6]; ratio of the IC50 over the geometric mean MIC value): 111.2

Nisin
membrane perturbation, propidium iodide fluorescence (comparison in words) (SP3 [7]): faster and more potent at membrane perturbation

N=C(N)NCCC[C@H](NC(=O)[C@H](CCCNC(=N)N)NC(=O)[C@H](Cc1c[nH]c2ccccc12)NC(=O)[C@H](Cc1c[nH]c2ccccc12)NC(=O)[C@H](CCCNC(=N)N)NC(=O)[C@H](CCCNC(=N)N)NC(=O)[C@H](Cc1c[nH]c2ccccc12)NC(=O)[C@H](Cc1c[nH]c2ccccc12)NC(=O)[C@H](CCCNC(=N)N)NC(=O)[C@H](Cc1c[nH]c2ccccc12)NC(=O)[C@H](Cc1c[nH]c2ccccc12)NC(=O)[C@@H](N)CCCNC(=N)N)C(=O)O [WR-12] (H-RWWRWWRRWWRR-OH)
MIC50 [4]: 0.5 µM (≈ 1.04 µg/mL) | MIC90 [4]: 2 µM (≈ 4.14 µg/mL) | MIC50 [5]: 1 µM (≈ 2.07 µg/mL) | MIC90 [5]: 2 µM (≈ 4.14 µg/mL) | GM MIC S. pseudintermedius [1]: 1.5 µM | IC50 ([2]; 24 h): 128 µM | TI (Therapeutic index) J774A.1 ([2]; 24 h): 85.3/85.3 | IC50 [6]: 128 µM

CC[C@H](C)[C@H](NC(=O)[C@H](CCCNC(=N)N)NC(=O)[C@H](CCCNC(=N)N)NC(=O)[C@H](CC(C)C)NC(=O)[C@@H](N)Cc1c[nH]c2ccccc12)C(=O)N[C@@H](CCCCN)C(=O)N[C@@H](C)C(=O)N[C@@H](Cc1c[nH]c2ccccc12)C(=O)N[C@@H](CC(C)C)C(=O)N[C@@H](CCCNC(=N)N)C(=O)N[C@@H](CCCNC(=N)N)C(=O)O [RR] (H-WLRRIKAWLRR-OH)
concentration up to which not toxic to mammalian cells [8]: up to 64 µM

NCCCC[C@H](NC(=O)[C@H](Cc1ccccc1)NC(=O)[C@H](Cc1ccccc1)NC(=O)[C@H](CCCCN)NC(=O)[C@H](Cc1ccccc1)NC(=O)[C@H](Cc1ccccc1)NC(=O)[C@H](CCCCN)NC(=O)[C@H](Cc1ccccc1)NC(=O)[C@H](Cc1ccccc1)NC(=O)[C@@H](N)CCCCN)C(N)=O [(KFF)3K] (H-KFFKFFKFFK-NH2)
MIC50 [4]: 4 µM (≈ 5.65 µg/mL) | MIC90 [4]: 8 µM (≈ 11.3 µg/mL) | MIC50 [5]: 8 µM (≈ 11.3 µg/mL) | MIC90 [5]: 16 µM (≈ 22.6 µg/mL) | GM MIC S. pseudintermedius [1]: 7.75 µM | IC50 ([2]; 24 h): 256 µM | TI (Therapeutic index) J774A.1 ([2]; 24 h): 33/>33 | IC50 [6]: > 256 µM

O=C(O)c1cn(C2CC2)c2cc(N3CCNCC3)c(F)cc2c1=O [Ciprofloxacin, ciprofloxacin]
effect on culture turbidity (SP3 [9]): did not reduce the culture turbidity

NCC[C@H](O)C(=O)N[C@@H]1C[C@H](N)[C@@H](O[C@H]2O[C@H](CN)[C@@H](O)[C@H](O)[C@H]2O)[C@H](O)[C@H]1O[C@H]1O[C@H](CO)[C@@H](O)[C@H](N)[C@H]1O [Amikacin, amikacin hydrate]
log10 reduction after 12 hours incubation (MRSP (SP3)): 3 log10 | log10 reduction within 3 hours (MRSP (SP3); 37°C): less than one log10 reduction | time after which bactericidal activity was demonstrated (MRSP (SP3); data not shown): 12 h | effect on culture turbidity (SP3 [9]): did not reduce the culture turbidity | FIC index [3, 12]: 0.37 | FIC index [3, 13]: 0.75 | FIC index [3, 14]: 0.75 | FIC index [3, 15]: 0.75 | FIC index [3, 16]: 1 | FIC index [3, 17]: 1 | passage at which shift (doubling) of the MIC began [10]: 4 passage | fold increase in the MIC by passage 10 ([10]; ratio to the initial MIC): 32 fold

CC[C@@H](C)[C@@H](N)C(=O)N[C@H](CCCNC(=N)N)C(=O)N[C@@H](C(=O)N[C@H](CCCCN)C(=O)N[C@@H](C(=O)N[C@H](CCCNC(=N)N)C(=O)N[C@@H](C(=O)N[C@H](CCCCN)C(=O)O)[C@H](C)CC)[C@H](C)CC)[C@H](C)CC [IK8 “D isoform”] (H-[dI][dR][dI][dK][dI][dR][dI][dK]-OH)
MIC50 [4]: 4 µM (≈ 4.16 µg/mL) | MIC90 [4]: 4 µM (≈ 4.16 µg/mL) | MIC50 [5]: 4 µM (≈ 4.16 µg/mL) | MIC90 [5]: 8 µM (≈ 8.32 µg/mL) | GM MIC S. pseudintermedius [1]: 5 µM | IC50 ([2]; 24 h): > 256 µM | TI (Therapeutic index) J774A.1 ([2]; 24 h): >51.2/>51.2 | IC50 [6]: > 256 µM | proteolytic degradation by mammalian or microbial proteases [11]: prevented proteolytic degradation
